≈ marks a conversion by molar mass, not a printed value.
Key:
susceptible strains = test: Minimum inhibitory concentration (MIC) in in vitro experiments; type: cell-based, gram-positive organisms; settings: against susceptible strains, compared with vancomycin, 'typically'
[1] = Hygroscopicity of the amorphous preparation; type: physicochemical; settings: amorphous daptomycin preparation

| solubility (physchem; solubility in normal saline) | SMILES | MIC value, fold lower than that of vancomycin (susceptible strains) | hygroscopicity [1] | solubility (physchem; solubility in ethanol) | solubility (physchem; solubility in water) |
| --- | --- | --- | --- | --- | --- |
| ~80 mg/mL (≈ 48.9 mM) | CCCCCCCCCCC(=O)NC(Cc1c[nH]c2ccccc12)C(=O)NC(CC(N)=O)C(=O)NC(CC(=O)O)C(=O)NC1C(=O)NCC(=O)NC(CCCN)C(=O)NC(CC(=O)O)C(=O)NC(C)C(=O)NC(CC(=O)O)C(=O)NCC(=O)NC(CO)C(=O)NC(C(C)CC(=O)O)C(=O)NC(CC(=O)c2ccccc2N)C(=O)OC1C (centres unmarked) [CB-131547] | – | – | – | – |
| – | CCCCCCCCCC(=O)N[C@@H](Cc1c[nH]c2ccccc12)C(=O)N[C@H](CC(N)=O)C(=O)N[C@@H](CC(=O)O)C(=O)N[C@@H]1C(=O)NCC(=O)N[C@@H](CCCN)C(=O)N[C@@H](CC(=O)O)C(=O)N[C@H](C)C(=O)N[C@@H](CC(=O)O)C(=O)NCC(=O)N[C@H](CO)C(=O)N[C@@H]([C@H](C)CC(=O)O)C(=O)N[C@@H](CC(=O)c2ccccc2N)C(=O)O[C@@H]1C [daptomycin] | 4 fold | hygroscopic | 2.8 mg/mL (≈ 1.73 mM) | > 1000 mg/mL |

— patent publication US8796224B2, “Methods for preparing purified lipopeptides” (priority 2000, dated 2014)
